Data reported in patent publication US9896445B2, “Heterocyclic inhibitors of ERK1 and ERK2 and their use in the treatment of cancer” (Asana Biosciences, LLC, priority 2015, dated 2018).

Experiments:
ERK2 = molecular target: T1, ERK2 (Homo sapiens, UniProt P28482); test: ERK2 HTRF (biochemical) assay
T1 construct: purchased Jubilant Biosys
Method in brief: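 Compounds were tested as half-log dilutions from 0.0005 to 10 uM in Tris pH 7.5/MgCl2 buffer, with a substrate mix of 1 uM biotin-MBP peptide and 24 uM ATP and an enzyme mix of 25 nM ERK2. Reaction ran 60 min at room temperature. Phospho-MBP was detected by HTRF (Eu-anti-phospho-MBP/SA-APC, 665/620 nm), and IC50 was fitted with a variable-slope sigmoidal curve.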

ERK1 = molecular target: T2, ERK1 (Homo sapiens, UniProt P27361); test: ERK1 HTRF (biochemical) assay
T2 construct: purchased Jubilant Biosys
Description: ERK1 and ERK2 HTRF (Biochemical) Assays
These assays employed a homogeneous time resolved fluorescence (HTRF) technique. […] The plate was incubated at room temperature for 60 min with shaking. […] The IC50 values (half maximal inhibitory concentration values) were subsequently determined using a sigmoidal dose-response curve (variable slope) in GraphPad Prism® 5 software.

T1 sequence (P28482 whole entry): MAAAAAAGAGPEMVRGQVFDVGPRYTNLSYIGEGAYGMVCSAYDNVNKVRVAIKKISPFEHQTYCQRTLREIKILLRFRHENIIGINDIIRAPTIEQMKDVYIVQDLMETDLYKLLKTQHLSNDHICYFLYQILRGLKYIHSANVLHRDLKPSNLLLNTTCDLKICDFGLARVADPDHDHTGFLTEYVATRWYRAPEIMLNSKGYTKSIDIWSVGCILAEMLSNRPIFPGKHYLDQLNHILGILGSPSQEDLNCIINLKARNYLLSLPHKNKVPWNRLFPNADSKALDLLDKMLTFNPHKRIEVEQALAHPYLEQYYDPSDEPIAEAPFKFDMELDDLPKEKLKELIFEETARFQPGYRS
T2 sequence (P27361 whole entry): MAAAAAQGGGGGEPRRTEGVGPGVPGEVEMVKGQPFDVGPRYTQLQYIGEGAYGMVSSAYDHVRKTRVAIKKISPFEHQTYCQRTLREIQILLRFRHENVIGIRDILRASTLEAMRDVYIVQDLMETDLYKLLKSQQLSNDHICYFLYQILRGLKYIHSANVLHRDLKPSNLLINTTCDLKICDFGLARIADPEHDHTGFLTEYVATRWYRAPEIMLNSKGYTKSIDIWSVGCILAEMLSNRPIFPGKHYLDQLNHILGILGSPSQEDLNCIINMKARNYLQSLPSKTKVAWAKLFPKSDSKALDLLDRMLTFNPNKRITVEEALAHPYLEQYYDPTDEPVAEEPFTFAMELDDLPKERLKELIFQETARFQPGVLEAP

IC50 (ERK2; HTRF)	IC50 (ERK1; HTRF)	IC50 (ERK2; HTRF biochemical assay)	IC50 (ERK1; HTRF biochemical assay)	SMILES
≤ 50 nM	< 50 nM	–	–	Cc1cnc(NC2CCOCC2)nc1-n1cnc(C(=O)N[C@H](CNCc2ccc[nH]2)c2cccc(Cl)c2)c1 [Example 306, (S)-N-(2-(((1H-pyrrol-2-yl)-methyl)amino)-1-(3-chlorophenyl)-ethyl)-1-(5-methyl-2-((tetrahydro-2H-pyran-4-yl)amino)-pyrimidin-4-yl)-1H-imidazole-4-carboxamide]
≤ 50 nM	< 50 nM	–	–	Cc1cnc(NC2CCOCC2)nc1-n1cnc(C(=O)NCc2cccc(Cl)n2)c1 [Example 307, N-((6-chloro-pyridin-2-yl)methyl)-1-(5-methyl-2-((tetrahydro-2H-pyran-4-yl)amino)-pyrimidin-4-yl)-1H-imidazole-4-carboxamide]
–	–	≤ 50 nM	< 50 nM	Cc1cnc(NC2CCOCC2)nc1-n1cnc(C(=O)N[C@H](CNC2CCOCC2)c2cccc(Cl)c2)c1 [Example 308, (S)-N-(1-(3-chlorophenyl)-2-((tetrahydro-2H-pyran-4-yl)amino)-ethyl)-1-(5-methyl-2-((tetrahydro-2H-pyran-4-yl)amino)-pyrimidin-4-yl)-1H-imidazole-4-carbox amide]
–	–	≤ 50 nM	< 50 nM	Cc1cnc(NC2CCOCC2)nc1-n1cnc(C(=O)NCc2cccc(Cl)c2F)c1 [Example 309, N-(3-chloro-2-fluorobenzyl)-1-(5-methyl-2-((tetrahydro-2H-pyran-4-yl)amino)-pyrimidin-4-yl)-1H-imidazole-4-carboxamide]
–	–	≤ 50 nM	100 to 500 nM	Cc1cnc(N[C@H]2CCOC2)nc1-n1cnc(C(=O)NCc2cccc(C#N)c2)c1 [Example 310, (S)-N-(3-cyano-benzyl)-1-(5-methyl-2-((tetrahydrofuran-3-yl)amino)-pyrimidin-4-yl)-1H-imidazole-4-carboxamide]
–	–	≤ 50 nM	50 to 100 nM	Cc1cnc(N[C@H]2CCOC2)nc1-n1cnc(C(=O)NCc2cccc(C(F)(F)F)c2)c1 [Example 311, (S)-1-(5-methyl-2-((tetrahydrofuran-3-yl)amino)-pyrimidin-4-yl)-N-(3-(trifluoro-methyl)benzyl)-1H-imidazole-4-carboxamide]
–	–	≤ 50 nM	< 50 nM	Cc1cnc(NC2CCOCC2)nc1-n1cnc(C(=O)NC(C(N)=O)c2cccc(Cl)c2)c1 (stereo not drawn) [Example 312, N-(2-amino-1-(3-chlorophenyl)-2-oxoethyl)-1-(5-methyl-2-((tetrahydro-2H-pyran-4-yl)amino)-pyrimidin-4-yl)-1H-imidazole-4-carboxamide]
–	–	≤ 50 nM	< 50 nM	Cc1cnc(N[C@H]2CCOC2)nc1-n1cnc(C(=O)NCc2cc(Cl)cc(Cl)c2)c1 [Example 313, (S)-N-(3,5-dichloro-benzyl)-1-(5-methyl-2-((tetrahydrofuran-3-yl)amino)-pyrimidin-4-yl)-1H-imidazole-4-carboxamide]
–	–	≤ 50 nM	< 50 nM	Cc1cnc(N[C@H]2CCOC2)nc1-n1cnc(C(=O)NCc2ccc(Cl)c(Cl)c2)c1 [Example 314, (S)-N-(3,4-dichlorobenzyl)-1-(5-methyl-2-((tetrahydrofuran-3-yl)amino)pyrimidin-4-yl)-1H-imidazole-4-carboxamide]
–	–	≤ 50 nM	< 50 nM	Cc1cnc(N[C@H]2CCOC2)nc1-n1cnc(C(=O)NCc2cccc(Cl)c2)c1 [Example 318, (S)-N-(3-chloro-benzyl)-1-(5-methyl-2-((tetrahydrofuran-3-yl)amino)-pyrimidin-4-yl)-1H-imidazole-4-carboxamide]
–	–	≤ 50 nM	< 50 nM	Cc1cnc(NC2CCOCC2)nc1-n1cnc(C(=O)N[C@H](CN(C)C)c2cccc(Cl)c2)c1 [Example 320, (S)-N-(1-(3-chlorophenyl)-2-(dimethylamino)-ethyl)-1-(5-methyl-2-((tetrahydro-2H-pyran-4-yl)amino)-pyrimidin-4-yl)-1H-imidazole-4-carboxamide]
–	–	≤ 50 nM	< 50 nM	CNC[C@@H](NC(=O)c1cn(-c2nc(NC3CCOCC3)ncc2C)cn1)c1cccc(Cl)c1 [Example 326, (S)-N-(1-(3-chlorophenyl)-2-(methylamino)ethyl)-1-(5-methyl-2-((tetrahydro-2H-pyran-4-yl)amino)-pyrimidin-4-yl)-1H-imidazole-4-carboxamide]
–	–	≤ 50 nM	< 50 nM	Cc1cnc(NC2CCOCC2)nc1-n1cnc(C(=O)NCc2nc(Cl)sc2C)c1 [Example 328, N-((2-chloro-5-methylthiazol-4-yl)methyl)-1-(5-methyl-2-((tetrahydro-2H-pyran-4-yl)amino)-pyrimidin-4-yl)-1H-imidazole-4-carboxamide]
–	–	≤ 50 nM	< 50 nM	Cc1cnc(Nc2ccc(F)cc2Cl)nc1-n1cnc(C(=O)NCc2cccc(Cl)c2CO)c1 [Example 329, N-(3-chloro-2-(hydroxymethyl)-benzyl)-1-(2-((2-chloro-4-fluoro-phenyl)amino)-5-methylpyrimidin-4-yl)-1H-imidazole-4-carboxamide]
–	–	≤ 50 nM	< 50 nM	Cc1cnc(NC2CCOCC2)nc1-n1cnc(C(=O)NCc2ccc(Cl)c(CO)c2)c1 [Example 330, N-(4-chloro-3-(hydroxymethyl)-benzyl)-1-(5-methyl-2-((tetrahydro-2H-pyran-4-yl)amino)-pyrimidin-4-yl)-1H-imidazole-4-carboxamide]
–	–	≤ 50 nM	< 50 nM	Cc1cnc(N[C@H]2CCOC2)nc1-n1cnc(C(=O)NCc2cccc(Cl)c2C)c1 [Example 331, (S)-N-(3-chloro-2-methylbenzyl)-1-(5-methyl-2-((tetrahydrofuran-3-yl)amino)pyrimidin-4-yl)-1H-imidazole-4-carboxamide]

More lines, now with the values behind:

SMILES	IC50 (ERK2; HTRF)	IC50 (ERK1; HTRF)	IC50 (ERK2; HTRF biochemical assay)	IC50 (ERK1; HTRF biochemical assay)
Cc1cnc(NC2CCOCC2)nc1-n1cnc(C(=O)NCc2sccc2CO)c1 [Example 284, N-((3-(hydroxy-methyl)thiophen-2-yl)methyl)-1-(5-methyl-2-((tetrahydro-2H-pyran-4-yl)amino)-pyrimidin-4-yl)-1H-imidazole-4-carboxamide]	≤ 50 nM	< 50 nM	–	–
Cc1cnc(NC2CCOCC2)nc1-n1cnc(C(=O)NCc2cccc(Cl)c2CN)c1 [Example 285, N-(2-(aminomethyl)-3-chlorobenzyl)-1-(5-methyl-2-((tetrahydro-2H-pyran-4-yl)amino)-pyrimidin-4-yl)-1H-imidazole-4-carboxamide]	≤ 50 nM	< 50 nM	–	–
Cc1cnc(NC2CCC(F)(F)CC2)nc1-n1cnc(C(=O)N[C@H](CN)c2cccc(Cl)c2)c1 [Example 286, (S)-N-(2-amino-1-(3-chlorophenyl)-ethyl)-1-(2-((4,4-difluorocyclo-hexyl)amino)-5-methylpyrmidin-4-yl)-1H-imidazole-4-carboxamide]	≤ 50 nM	< 50 nM	–	–
Cc1cnc(NC2CCOCC2)nc1-n1cnc(C(=O)NCc2ccccc2CO)c1 [Example 287, N-(2-(hydroxy-methyl)benzyl)-1-(5-methyl-2-((tetrahydro-2H-pyran-4-yl)amino)-pyrimidin-4-yl)-1H-imidazole-4-carboxamide]	≤ 50 nM	< 50 nM	–	–
Cc1cnc(NC2CC(F)(F)C2)nc1-n1cnc(C(=O)N[C@H](CN)c2cc(F)cc(Cl)c2)c1 [Example 288, (S)-N-(2-amino-1-(3-chloro-5-fluoro-phenyl)ethyl)-1-(2-((3,3-difluoro-cyclobutyl)amino)-5-methylpyrimidin-4-yl)-1H-imidazole-4-carboxamide]	≤ 50 nM	< 50 nM	–	–
Cc1cnc(NC2CC(F)(F)C2)nc1-n1cnc(C(=O)N[C@@H](CN)c2cc(F)cc(Cl)c2)c1 [Example 289, (R)-N-(2-amino-1-(3-chloro-5-fluoro-phenyl)ethyl)-1-(2-((3,3-difluoro-cyclobutyl)amino)-5-methylpyrimidin-4-yl)-1H-imidazole-4-carboxamide]	50 to 100 nM	100 to 500 nM	–	–
Cc1cnc(NC2CC=CCC2)nc1-n1cnc(C(=O)N[C@H](CN)c2cccc(Cl)c2)c1 (stereo partly drawn) [Example 292, N-((S)-2-amino-1-(3-chlorophenyl)-ethyl)-1-(2-(cyclohex-3-en-1-ylamino)-5-methyl-pyrimidin-4-yl)-1H-imidazole-4-carboxamide]	≤ 50 nM	< 50 nM	–	–
Cc1cnc(NC2CCOCC2)nc1-n1cnc(C(=O)NCc2ccccc2C(C)(C)O)c1 [Example 293, N-(2-(2-hydroxy-propan-2-yl)benzyl)-1-(5-methyl-2-((tetrahydro-2H-pyran-4-yl)amino)-pyrimidin-4-yl)-1H-imidazole-4-carboxamide]	≤ 50 nM	< 50 nM	–	–
Cc1cnc(NC2CCOCC2)nc1-n1cnc(C(=O)NCc2sccc2CN)c1 [Example 294, N-((3-(amino-methyl)thiophen-2-yl)methyl)-1-(5-methyl-2-((tetrahydro-2H-pyran-4-yl)amino)-pyrimidin-4-yl)-1H-imidazole-4-carboxamide]	≤ 50 nM	< 50 nM	–	–
Cc1cnc(NC2CCOCC2)nc1-n1cnc(C(=O)N[C@H](CO)c2cc(F)cc(Cl)c2)c1 [Example 295, (S)-N-(1-(3-chloro-5-fluorophenyl)-2-hydroxyethyl)-1-(5-methyl-2-((tetrahydro-2H-pyran-4-yl)amino)-pyrimidin-4-yl)-1H-imidazole-4-carboxamide]	≤ 50 nM	< 50 nM	–	–
Cc1cnc(NC2CCN(C)CC2)nc1-n1cnc(C(=O)N[C@H](CO)c2cccc(Cl)c2)c1 [Example 296, (S)-N-(1-(3-chlorophenyl)-2-hydroxyethyl)-1-(5-methyl-2-((1-methylpiperidin-4-yl)amino)-pyrimidin-4-yl)-1H-imidazole-4-carboxamide]	≤ 50 nM	< 50 nM	–	–
